Among the data in patent publication US10513521B2, “Compositions and methods for inhibiting BMP” (The Brigham and Women's Hospital, Inc., priority 2014, dated 2019) are IC50 values, retold here.

In one experiment the target is ALK1 (Homo sapiens, UniProt P37023). Briefly: TR-FRET enzymatic ALK kinase assay, ALK1.
A further experiment deals with T1, ALK2 (Homo sapiens, UniProt Q04771).
T1 sequence (Q04771 21-509): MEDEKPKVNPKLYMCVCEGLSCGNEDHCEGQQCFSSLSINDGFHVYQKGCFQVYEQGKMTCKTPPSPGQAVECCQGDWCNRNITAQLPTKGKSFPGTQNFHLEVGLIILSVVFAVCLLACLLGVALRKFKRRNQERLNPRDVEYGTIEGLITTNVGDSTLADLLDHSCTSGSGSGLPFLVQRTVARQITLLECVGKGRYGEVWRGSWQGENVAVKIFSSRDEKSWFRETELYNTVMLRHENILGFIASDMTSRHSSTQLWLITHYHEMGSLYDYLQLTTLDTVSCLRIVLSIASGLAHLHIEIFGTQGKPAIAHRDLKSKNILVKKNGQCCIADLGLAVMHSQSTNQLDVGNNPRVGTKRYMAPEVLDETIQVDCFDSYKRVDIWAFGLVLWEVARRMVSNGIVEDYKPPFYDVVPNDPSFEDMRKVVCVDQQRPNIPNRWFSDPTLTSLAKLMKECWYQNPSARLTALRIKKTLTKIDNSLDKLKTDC
The experiment in a line: TR-FRET enzymatic ALK kinase assay, ALK2.

A further experiment addresses ALK3 (Homo sapiens, UniProt P36894). The experiment in a line: TR-FRET enzymatic ALK kinase assay, ALK3.
The target of another experiment is T2, ALK4 (Homo sapiens, UniProt P36896).
T2 sequence (P36896 24-505): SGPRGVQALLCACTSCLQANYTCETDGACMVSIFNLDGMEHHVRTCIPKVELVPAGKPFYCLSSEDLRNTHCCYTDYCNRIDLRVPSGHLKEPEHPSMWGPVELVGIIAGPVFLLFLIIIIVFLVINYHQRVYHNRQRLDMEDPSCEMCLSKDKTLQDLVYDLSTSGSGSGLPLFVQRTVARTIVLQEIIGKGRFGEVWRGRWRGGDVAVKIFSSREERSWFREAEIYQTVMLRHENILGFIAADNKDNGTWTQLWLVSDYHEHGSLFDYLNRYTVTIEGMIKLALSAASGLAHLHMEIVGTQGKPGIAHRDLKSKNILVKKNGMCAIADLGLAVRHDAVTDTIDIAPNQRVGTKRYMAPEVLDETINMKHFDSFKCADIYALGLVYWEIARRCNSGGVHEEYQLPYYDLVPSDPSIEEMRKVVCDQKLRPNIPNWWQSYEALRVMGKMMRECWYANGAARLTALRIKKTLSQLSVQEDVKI
Briefly: TR-FRET enzymatic ALK kinase assay, ALK4.

The target of the next experiment is T3, ALK5 (Homo sapiens, UniProt P36897).
T3 sequence (P36897 34-503): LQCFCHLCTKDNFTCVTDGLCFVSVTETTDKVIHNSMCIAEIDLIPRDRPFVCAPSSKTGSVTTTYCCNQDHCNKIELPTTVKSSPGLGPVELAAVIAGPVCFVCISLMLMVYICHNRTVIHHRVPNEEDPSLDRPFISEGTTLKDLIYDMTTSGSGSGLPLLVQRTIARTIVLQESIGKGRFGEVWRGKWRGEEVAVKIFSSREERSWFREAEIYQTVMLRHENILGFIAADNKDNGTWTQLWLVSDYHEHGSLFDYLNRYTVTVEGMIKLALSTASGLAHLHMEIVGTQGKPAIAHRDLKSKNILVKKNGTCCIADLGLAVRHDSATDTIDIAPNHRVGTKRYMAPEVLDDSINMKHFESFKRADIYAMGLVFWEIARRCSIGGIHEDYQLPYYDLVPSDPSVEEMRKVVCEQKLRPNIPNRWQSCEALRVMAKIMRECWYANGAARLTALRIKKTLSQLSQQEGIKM
Briefly: TR-FRET enzymatic ALK kinase assay, ALK5. A general note: TR-FRET usually uses a lanthanide donor and a delayed reading to cut background.

Another experiment has as its target ALK6 (Homo sapiens, UniProt O00238). The experiment in a line: TR-FRET enzymatic ALK kinase assay, ALK6.

For orientation: IC50 means the point on the concentration scale where inhibition reaches its midpoint. Read a high IC50 as weaker potency.

The structures appear in SMILES notation. Bounds are passed on as bounds.

Chain of ALK6 (O00238 14-502): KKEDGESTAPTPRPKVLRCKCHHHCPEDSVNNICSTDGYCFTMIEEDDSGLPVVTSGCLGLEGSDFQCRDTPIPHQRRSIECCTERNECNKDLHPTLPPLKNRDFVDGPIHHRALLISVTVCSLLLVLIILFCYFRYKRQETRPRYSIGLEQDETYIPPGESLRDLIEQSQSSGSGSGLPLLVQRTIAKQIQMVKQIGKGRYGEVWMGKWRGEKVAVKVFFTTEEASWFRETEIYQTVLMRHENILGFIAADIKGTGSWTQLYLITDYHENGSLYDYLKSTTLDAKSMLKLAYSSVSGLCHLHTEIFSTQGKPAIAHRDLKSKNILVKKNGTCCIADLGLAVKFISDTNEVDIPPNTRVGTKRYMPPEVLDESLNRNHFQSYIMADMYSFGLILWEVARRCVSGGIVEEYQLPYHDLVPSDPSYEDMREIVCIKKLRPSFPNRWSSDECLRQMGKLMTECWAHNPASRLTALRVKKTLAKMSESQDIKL
Chain of ALK1 (P37023 22-503): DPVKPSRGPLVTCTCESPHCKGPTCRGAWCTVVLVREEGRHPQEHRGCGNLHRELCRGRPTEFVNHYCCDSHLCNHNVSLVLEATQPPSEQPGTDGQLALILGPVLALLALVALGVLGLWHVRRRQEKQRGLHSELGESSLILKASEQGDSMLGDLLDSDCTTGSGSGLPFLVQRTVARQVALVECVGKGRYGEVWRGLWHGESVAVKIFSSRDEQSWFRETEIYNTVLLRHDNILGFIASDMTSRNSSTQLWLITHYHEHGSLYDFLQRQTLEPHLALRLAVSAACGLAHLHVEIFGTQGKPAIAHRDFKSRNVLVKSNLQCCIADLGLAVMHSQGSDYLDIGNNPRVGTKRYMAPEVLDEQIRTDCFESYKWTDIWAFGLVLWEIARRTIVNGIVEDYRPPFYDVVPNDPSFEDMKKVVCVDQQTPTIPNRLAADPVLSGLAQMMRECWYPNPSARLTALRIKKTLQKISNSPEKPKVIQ
Chain of ALK3 (P36894 24-532): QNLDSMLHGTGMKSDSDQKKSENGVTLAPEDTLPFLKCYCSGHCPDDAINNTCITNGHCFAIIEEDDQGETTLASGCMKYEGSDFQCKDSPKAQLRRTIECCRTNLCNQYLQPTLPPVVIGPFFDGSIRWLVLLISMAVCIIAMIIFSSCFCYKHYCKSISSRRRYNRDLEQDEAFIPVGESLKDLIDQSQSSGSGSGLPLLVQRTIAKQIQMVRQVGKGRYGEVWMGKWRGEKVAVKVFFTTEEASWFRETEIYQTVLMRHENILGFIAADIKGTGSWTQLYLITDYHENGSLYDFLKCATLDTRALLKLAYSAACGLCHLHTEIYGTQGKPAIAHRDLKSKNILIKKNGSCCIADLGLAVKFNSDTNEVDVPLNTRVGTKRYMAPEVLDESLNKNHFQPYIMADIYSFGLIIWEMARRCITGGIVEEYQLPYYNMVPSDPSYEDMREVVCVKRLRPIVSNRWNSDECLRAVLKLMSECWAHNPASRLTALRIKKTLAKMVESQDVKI
Experimental for ALK1: (§1) Briefly, the ALKs enzymatic assay was initiated by dispense 2.5 μl enzyme in 1× kinase reaction buffer. The assay plate was then added with compounds followed by incubation at room temperature for 10 minutes. Then 2.5 μl/well substrate was added.
Experimental for ALK2: as §1
Experimental for ALK3: as §1
Experimental for ALK4: as §1
Experimental for ALK5: Six ALK kinase enzyme assays were developed for determination of compound activities on ALK1, ALK2, ALK3, ALK4, ALK5 and ALK6.
as §1
Experimental for ALK6: as §1

As for `CS(=O)(=O)c1cccc(-c2cnn3cc(-c4ccc(C5CCCNC5)cc4)cnc23)c1` (stereo not drawn) [Compound 139, 3-(3-(methylsulfonyl)phenyl)-6-(4-(piperidin-3-yl)phenyl)pyrazolo[1,5-a]pyrimidine], the IC50 at ALK1 is 0.37 µM; on ALK2 it was 0.089 µM; against ALK3, 4.8 µM; against ALK4 it was above 10 µM; against ALK5 it was above 10 µM; at ALK6, above 10 µM.

For the compound `CS(=O)(=O)c1cccc(-c2cnn3cc(-c4ccc(CCN5CCC(O)CC5)cc4)cnc23)c1` [Compound 140, 1-(4-(3-(3-(methylsulfonyl)phenyl)pyrazolo[1,5-a]pyrimidin-6-yl)phenethyl)piperidin-4-ol], the IC50 was 0.62 µM against ALK1; 0.14 µM at ALK2; 7.6 µM against ALK3; above 10 µM against ALK4; above 10 µM against ALK5; above 10 µM against ALK6.

Regarding `CS(=O)(=O)c1cccc(-c2cnn3cc(-c4ccc(CCN5CCCC(O)C5)cc4)cnc23)c1` (stereo not drawn) [Compound 141, 1-(4-(3-(3-(methylsulfonyl)phenyl)pyrazolo[1,5-a]pyrimidin-6-yl)phenethyl)piperidin-3-ol], the IC50 was 0.75 µM against ALK1; 0.098 µM against ALK2; 5.9 µM on ALK3; above 10 µM against ALK4; above 10 µM at ALK5; above 10 µM against ALK6.

Consider `CC(O)c1cccc(-c2cnn3cc(-c4ccc(OCCN5CCCCC5)cc4)cnc23)c1` (stereo not drawn) [Compound 142, 1-(3-(6-(4-(2-(piperidin-1-yl)ethoxy)phenyl)pyrazolo[1,5-a]pyrimidin-3-yl)phenyl)ethanol], for which the IC50 on ALK1 was 0.56 µM; on ALK2 it was 0.11 µM; against ALK3, 1.6 µM; against ALK4, above 10 µM; against ALK5 it was above 10 µM; against ALK6 it was above 10 µM.

For `NC(c1ccc(-c2cnn3cc(-c4ccc(OCCN5CCCCC5)cc4)cnc23)cc1)C(F)(F)F` (stereo not drawn) [Compound 144, 2,2,2-trifluoro-1-(4-(6-(4-(2-(piperidin-1-yl)ethoxy)phenyl)pyrazolo[1,5-a]pyrimidin-3-yl)phenyl)ethanamine], the IC50 on ALK1, at ALK2, on ALK3, at ALK4, on ALK5 and against ALK6 was above 10 µM throughout.

In the case of `CC(O)c1cccc(-c2cnn3cc(-c4ccc(OCCN5CCCC5)cc4)cnc23)c1` (stereo not drawn) [Compound 145, 1-(3-(6-(4-(2-(pyrrolidin-1-yl)ethoxy)phenyl)pyrazolo[1,5-a]pyrimidin-3-yl)phenyl)ethanol], the IC50 was 1 µM against ALK1; 0.063 µM against ALK2; 2.6 µM against ALK3; above 10 µM against ALK4; above 10 µM against ALK5; above 10 µM against ALK6.

As to `CC(O)c1cccc(-c2cnn3cc(-c4ccc(CCN5CCCC5)cc4)cnc23)c1` (stereo not drawn) [Compound 146, 1-(3-(6-(4-(2-(pyrrolidin-1-yl)ethyl)phenyl)pyrazolo[1,5-a]pyrimidin-3-yl)phenyl)ethanol], the IC50 at ALK1 was 1.4 µM; at ALK2, 0.22 µM; against ALK3, 8 µM; on ALK4 it was above 10 µM; at ALK5, above 10 µM; on ALK6, above 10 µM.

Consider `CC(O)c1cccc(-c2cnn3cc(-c4ccc(CCN5CCOCC5)cc4)cnc23)c1` (stereo not drawn) [Compound 147, 1-(3-(6-(4-(2-morpholinoethyl)phenyl)pyrazolo[1,5-a]pyrimidin-3-yl)phenyl)ethanol], for which the IC50 against ALK1 was 0.47 µM; against ALK2, 0.17 µM; on ALK3, above 10 µM; at ALK4 it was above 10 µM; against ALK5 it was above 10 µM; against ALK6, above 10 µM.

With `CC(O)c1cccc(-c2cnn3cc(-c4ccc(CCN5CCC(O)C5)cc4)cnc23)c1` (stereo not drawn) [Compound 148, 1-(4-(3-(3-(1-hydroxyethyl)phenyl)pyrazolo[1,5-a]pyrimidin-6-yl)phenethyl)pyrrolidin-3-ol], the IC50 is 0.79 µM against ALK1; 0.15 µM at ALK2; 6.4 µM against ALK3; above 10 µM against ALK4; above 10 µM against ALK5; above 10 µM on ALK6.

On to `C[C@@H](O)c1cccc(-c2cnn3cc(-c4ccc(OCCN5CCCCC5)cc4)cnc23)c1` [Compound 149, (R)-1-(3-(6-(4-(2-(piperidin-1-yl)ethoxy)phenyl)pyrazolo[1,5-a]pyrimidin-3-yl)phenyl)ethanol], for which the IC50 at ALK1 was 4.5 µM; against ALK2, 0.18 µM; against ALK3, 6.8 µM; on ALK4, above 10 µM; at ALK5, above 10 µM; against ALK6, above 10 µM.

In the case of `CC(O)c1cccc(-c2cnn3cc(-c4ccc(CCN5CCCC(O)C5)cc4)cnc23)c1` (stereo not drawn) [Compound 150, 1-(4-(3-(3-(1-hydroxyethyl)phenyl)pyrazolo[1,5-a]pyrimidin-6-yl)phenethyl)piperidin-3-ol], the IC50 was 0.71 µM against ALK1; 0.14 µM against ALK2; 4.1 µM against ALK3; above 10 µM at ALK4; above 10 µM against ALK5; above 10 µM at ALK6.

`CC(O)c1cccc(-c2cnn3cc(-c4ccc(CCN5CCC(O)CC5)cc4)cnc23)c1` (stereo not drawn) [Compound 151, 1-(4-(3-(3-(1-hydroxyethyl)phenyl)pyrazolo[1,5-a]pyrimidin-6-yl)phenethyl)piperidin-4-ol]: the IC50 against ALK1 is 0.82 µM; on ALK2, 0.11 µM; against ALK3, 4.3 µM; at ALK4, above 10 µM; against ALK5 it was above 10 µM; on ALK6, above 10 µM.

Regarding `NC(c1cccc(-c2cnn3cc(-c4ccc(OCCN5CCCCC5)cc4)cnc23)c1)C(F)(F)F` (stereo not drawn) [Compound 153, 2,2,2-trifluoro-1-(3-(6-(4-(2-(piperidin-1-yl)ethoxy)phenyl)pyrazolo[1,5-a]pyrimidin-3-yl)phenyl)ethanamine], the IC50 on ALK1 was 1.4 µM; at ALK2 it was 0.11 µM; at ALK3 it was 4.3 µM; against ALK4 it was above 10 µM; on ALK5, above 10 µM; on ALK6, above 10 µM.

For the compound `C[C@@H](O)c1cccc(-c2cnn3cc(-c4ccc(CCN5CCC(O)C5)cc4)cnc23)c1` (stereo partly drawn) [Compound 155, 1-(4-(3-(3-((R)-1-hydroxyethyl)phenyl)pyrazolo[1,5-a]pyrimidin-6-yl)phenethyl)pyrrolidin-3-ol], the IC50 against ALK1 is 0.82 µM; at ALK2 it was 0.14 µM; against ALK3, 7.3 µM; against ALK4 it was above 10 µM; against ALK5 it was above 10 µM; on ALK6 it was above 10 µM.

Take `C[C@@H](O)c1cccc(-c2cnn3cc(-c4ccc(CCN5CCCC5)cc4)cnc23)c1` [Compound 156, (R)-1-(3-(6-(4-(2-(pyrrolidin-1-yl)ethyl)phenyl)pyrazolo[1,5-a]pyrimidin-3-yl)phenyl)ethanol]: the IC50 on ALK1 is 0.84 µM; against ALK2 it was 0.16 µM; against ALK3, 6.2 µM; at ALK4, above 10 µM; at ALK5, above 10 µM; at ALK6, above 10 µM.
